One data set relates to E. coli ATCC 25922. The data set can be described thus: MIC/MBC, microdilution in Mueller-Hinton broth, E. coli. It is filed as cell-based. The note with it: Escherichia coli; for MIC: ATCC25922, 18 h at 37° C., about 10^6 bacteria/ml, read-out: MINIMAL INHIBITORY CONCENTRATION (MIC); for MBC: ATCC25922, read-out: MINIMAL BACTERICIDAL CONCENTRATION (MBC). How it is done:
(§1) The products were tested vis-a-vis 7 reference strains
Escherichia coli ATCC 25922
(§2) The preparation of these mother solutions produced, varied according to the molecules as a function of solubility criteria.
(§3) The inoculation is carried out by adding to each cupule 10 μl of a dilution in physiological water of an 18 hour broth of heart/brain broth such that each cupule contains about 10^6 bacteria/ml.
(§4) The minimal inhibitory concentration is read as the first concentration of antibiotic giving no culture which is macroscopically visible after incubation for 18 hours at 37° C.

The subject of the next data set is S. faecalis. Briefly: MIC/MBC, microdilution in Mueller-Hinton broth, S. faecalis. Format: cell-based, Streptococcus faecalis. As to conditions: Enterococcus faecalis, ATCC25922, read-out: MINIMAL BACTERICIDAL CONCENTRATION (MBC). As to the method: (§5) The products were tested vis-a-vis 7 reference strains […]
as §2, §3, §4

Another data set concerns S. faecalis ATCC 25922. The description is as above. It is filed as cell-based, Streptococcus faecalis. As to conditions: Enterococcus faecalis, ATCC25922, 18 h, read-out: MINIMAL INHIBITORY CONCENTRATION (MIC). As to the method: as §5, §2, §3, §4
The subject of another data set is S. aureus ATCC 25923. The data set can be described thus: MIC/MBC, microdilution in Mueller-Hinton broth, S. aureus ATCC 25923. It is filed as cell-based. As to conditions: Staphylococcus aureus; for MIC: ATCC25923, 18 h at 37° C., about 10^6 bacteria/ml, read-out: MINIMAL INHIBITORY CONCENTRATION (MIC); for MBC: ATCC25923, read-out: MINIMAL BACTERICIDAL CONCENTRATION (MBC). How it is done:
as §1
Straphylococcus aureus ATCC 25923
as §2, §3, §4

The next data set relates to S. aureus CB-951. Briefly: MIC/MBC, microdilution in Mueller-Hinton broth, S. aureus CB-951. It is filed as cell-based. The note with it: Staphylococcus aureus, CB951, S. aureus CB-951, methicillino resistant, pefloxacino resistant. As to the method: as §1
Staphylococcus aureus CB 951
as §2, §3, §4

Another data set can be described thus: solubility in water. It is filed as physicochemical. The note with it: hydrochloride, pale yellow crystals.
Data set [1] has as its system Acinetobacter Baumanii ATCC 17904. The data set can be described thus: MIC/MBC, microdilution in Mueller-Hinton broth, Acinetobacter. As to conditions: Acinetobacter baumannii. Format: cell-based. How it is done:
as §1
Acinetobacter calcoaceticus variety anitratum ATCC 17903
as §2, §3, §4

The next data set deals with P. aeruginosa ATCC 22853. The data set can be described thus: MIC/MBC, microdilution in Mueller-Hinton broth, P. aeruginosa. Format: cell-based. The note with it: Pseudomonas aeruginosa; for MIC: ATCC22853, 18 h, read-out: MINIMAL INHIBITORY CONCENTRATION (MIC); for MBC: ATCC22853, read-out: MINIMAL BACTERICIDAL CONCENTRATION (MBC). As to the method: as §1
Pseudomonas aeruginosa ATCC 22853
as §2, §3, §4

≈ marks a conversion by molar mass, not a printed value. Where only a bound is given, the exact number is not on record here.

For `NCC1CCN(c2c(F)cc3c(=O)c(C(=O)O)cn(C4CC4)c3c2F)CC1` [Compound 1, 6,8-difluoro-7-[(4-aminomethyl)-1-piperdinyl]-1-(1-cyclopropyl)-4-oxo-1,4-dihydroquinolinyl-3-carboxylic acid], the MIC is 2 µg/mL (≈ 5.3 µM) in the data set with E. coli ATCC 25922; 1 µg/mL (≈ 2.65 µM) with S. faecalis ATCC 25922; 0.06 µg/mL (≈ 0.159 µM) in the data set on S. aureus ATCC 25923; 0.25 µg/mL (≈ 0.662 µM) in the data set on S. aureus CB-951 (18 h at 37° C., about 10^6 bacteria/ml, read-out: MINIMAL INHIBITORY CONCENTRATION (MIC)); 0.03 µg/mL (≈ 0.0795 µM) in data set [1] (ATCC17904, 18 h, read-out: MINIMAL INHIBITORY CONCENTRATION (MIC)); over 16 µg/mL in the data set with P. aeruginosa ATCC 22853. Further, the MBC in the data set on E. coli ATCC 25922 was 4 µg/mL (≈ 10.6 µM); with S. faecalis, 1 µg/mL (≈ 2.65 µM); in the data set on S. aureus ATCC 25923 it was 0.06 µg/mL (≈ 0.159 µM); in the data set with S. aureus CB-951 (read-out: MINIMAL BACTERICIDAL CONCENTRATION (MBC)), 0.25 µg/mL (≈ 0.662 µM); in data set [1] (ATCC17904, read-out: MINIMAL BACTERICIDAL CONCENTRATION (MBC)) it was 0.03 µg/mL (≈ 0.0795 µM); in the data set on P. aeruginosa ATCC 22853, over 16 µg/mL. In addition, the solubility in water entry in “solubility in water” is reported as “moderately soluble in water”.
On to `NCC1CCN(c2cc3c(cc2F)c(=O)c(C(=O)O)cn3C2CC2)CC1` [Compound 5, 6-fluoro-1-cyclopropyl-7-((4-aminomethyl)-1-piperidinyl)-quinolone-3-carboxylic acid], for which, in the data set with E. coli ATCC 25922, the MIC was 0.25 µg/mL (≈ 0.696 µM) and the MBC was 0.5 µg/mL (≈ 1.39 µM). In addition, in the data set on S. aureus ATCC 25923, the MIC was determined as 0.25 µg/mL (≈ 0.696 µM) and the MBC was 0.5 µg/mL (≈ 1.39 µM).
For `CC(C)n1cc(C(=O)O)c(=O)c2cc(F)c(N3CCC(CN)CC3)c(F)c21` [Compound 7, 6,8-difluoro-1-isopropyl-7-((4-aminomethyl)-1-piperidinyl)-quinolone-3-carboxylic acid], the MIC is 1.6 µg/mL (≈ 4.22 µM) in the data set with E. coli ATCC 25922, 3.2 µg/mL (≈ 8.43 µM) in the data set on S. faecalis ATCC 25922, 3.2 µg/mL (≈ 8.43 µM) in the data set on S. aureus ATCC 25923 and 25.6 µg/mL (≈ 67.5 µM) in the data set with P. aeruginosa ATCC 22853. Further, the MBC with E. coli ATCC 25922 was 1.6 µg/mL (≈ 4.22 µM); in the data set on S. faecalis, 25.6 µg/mL (≈ 67.5 µM); in the data set with S. aureus ATCC 25923, 6.4 µg/mL (≈ 16.9 µM); in the data set on P. aeruginosa ATCC 22853, over 51.2 µg/mL.
